Article PMC4823954, “From fighting depression to conquering tumors: a novel tricyclic thiazepine compound as a tubulin polymerization inhibitor” (Cell Death & Disease, 2016)
Several values for one entry are separate records, joined by “and”; a condition that tells them apart may be missing. Equal values may be shown once.

Key:
[1] = human liver microsome stability; assay type: in vitro ADME; details: liver microsomes, read-out: T1/2 in human liver microsome (converted)
Source text: As in vivo investigations are generally time consuming and expensive, it is advantageous to eliminate those compounds that are not suitable for animal experiments. One of the necessary steps is to screen the initial hits using assays testing their possible behaviors in vivo. To evaluate the drug-like properties of TBPT, a panel of in vitro assays was preformed (Table 1). The parallel artificial membrane permeability assay (PAMPA) was used to evaluate the cell permeability of the compounds. Compounds with a Pe >[…] are classified as highly permeable. […] The Caco-2 assay was used to predict the oral absorption values of the compounds in vivo. Compounds with a Caco-2 efflux ratio >2 may be subject to active efflux and should not be developed further. […] The half-life (T1/2) in human liver microsomes is used to predict the metabolism properties of compounds in vivo. […] A very long T1/2 (>24 h) increases the risk of cumulative toxicity and is not desirable. […] T1/2 in plasma indicates the stability of the drug in human blood; the high T1/2 values of these compounds indicated better stability in vivo. Plasma protein binding influences the distribution of drugs into body tissues, and compounds with high plasma protein binding (>99%) are limited in terms of the amount of free compound that are available to act on the targeted tissue. […]

H460 xenograft = assay: NSCLC xenograft tumor growth inhibition; assay type: in vivo; details: H460 xenografted mice; TBPT 60 mg/kg i.v., five injections every other day
Procedure: (§1) (a) The tumor volume was measured every other day. […] (b) Blood biochemical and hematological analyses.

H460TaxR xenograft = assay: NSCLC xenograft tumor growth inhibition; assay type: in vivo; details: H460TaxR xenografted mice; TBPT 60 mg/kg i.v., five injections every other day
Procedure: as §1

caspases 8, 9 and 3/7 [2] = assay: Caspases activity assay in H460TaxR cells; assay type: cell-based, human; details: 2 μM, 6, 12 and 24 h
Procedure: (§2) The activities of caspases 8, 9, and 3/7 in H460TaxR and H460 cells were examined via a fluorescence-based assay using Caspase-Glo 8, Caspase-Glo 9 Assay kits and Apo-ONE Homogeneous Caspase-3/7 Assay Kit (Promega, Madison, WI, USA). Cells (1 × 10^6 cells in 10 ml medium) were seeded in 10-cm dishes. After 24 h, the cells were treated with TBPT (2 μM) or DMSO for 6, 12 and 24 h. Then, the cells were washed in PBS and collected. Cell lysates were prepared conventionally in RIPA lysis buffer. Protein concentrations were determined using the BCA protein assay. Equal amounts (10 μg) of total protein of samples were added to 96-well culture plates containing 100 μl caspases 8, 9 and 3/7 activity working solution. After the samples were incubated for 1 h at RT, the fluorescence of each well was determined at 499 nm with an emission wavelength of 521 nm using a multimode plate reader (Victor X2, Perkin Elmer, Boston, MA, USA). The fluorescence intensities are proportional to the activities of caspases 8, 9 and 3/7.

caspases 8, 9 and 3/7 [3] = assay: Caspases activity assay in H460 cells; assay type: cell-based, human; details: H460, 2 μM, 6, 12 and 24 h
Procedure: as §2

NHFB cells = assay: Cell cycle and apoptosis analysis; assay type: cell-based, human; details: 2 μM
[4] = biological target: T1, ABL1(F317L)-phosphorylated (Homo sapiens, UniProt P00519, F317L); assay: KINOMEscan; assay type: binding; details: read-out: % Ctrl
T1 construct: purchased DiscoveRx KINOMEscan

[5] = biological target: T2, ABL1(Y253F)-phosphorylated (Homo sapiens, UniProt P00519, Y253F); assay: KINOMEscan; assay type: binding; details: read-out: % Ctrl
T2 construct: purchased DiscoveRx KINOMEscan

EGFR(L861Q) = biological target: T3, EGFR(L861Q) (Homo sapiens, UniProt P00533, L861Q); assay: KINOMEscan; assay type: binding; details: read-out: % Ctrl
T3 construct: purchased DiscoveRx KINOMEscan

EGFR(T790M) = biological target: T4, EGFR(T790M) (Homo sapiens, UniProt P00533, T790M); assay: KINOMEscan; assay type: binding; details: read-out: % Ctrl
T4 construct: purchased DiscoveRx KINOMEscan

FLT3(D835Y) = biological target: T5, FLT3(D835Y) (Homo sapiens, UniProt P36888, D835Y); assay: KINOMEscan; assay type: binding; details: read-out: % Ctrl
T5 construct: purchased DiscoveRx KINOMEscan

KIT(V559D) = biological target: T6, KIT(V559D) (Homo sapiens, UniProt P10721, V559D); assay: KINOMEscan; assay type: binding; details: read-out: % Ctrl
T6 construct: purchased DiscoveRx KINOMEscan
T6 sequence (P10721 26-976 V559D): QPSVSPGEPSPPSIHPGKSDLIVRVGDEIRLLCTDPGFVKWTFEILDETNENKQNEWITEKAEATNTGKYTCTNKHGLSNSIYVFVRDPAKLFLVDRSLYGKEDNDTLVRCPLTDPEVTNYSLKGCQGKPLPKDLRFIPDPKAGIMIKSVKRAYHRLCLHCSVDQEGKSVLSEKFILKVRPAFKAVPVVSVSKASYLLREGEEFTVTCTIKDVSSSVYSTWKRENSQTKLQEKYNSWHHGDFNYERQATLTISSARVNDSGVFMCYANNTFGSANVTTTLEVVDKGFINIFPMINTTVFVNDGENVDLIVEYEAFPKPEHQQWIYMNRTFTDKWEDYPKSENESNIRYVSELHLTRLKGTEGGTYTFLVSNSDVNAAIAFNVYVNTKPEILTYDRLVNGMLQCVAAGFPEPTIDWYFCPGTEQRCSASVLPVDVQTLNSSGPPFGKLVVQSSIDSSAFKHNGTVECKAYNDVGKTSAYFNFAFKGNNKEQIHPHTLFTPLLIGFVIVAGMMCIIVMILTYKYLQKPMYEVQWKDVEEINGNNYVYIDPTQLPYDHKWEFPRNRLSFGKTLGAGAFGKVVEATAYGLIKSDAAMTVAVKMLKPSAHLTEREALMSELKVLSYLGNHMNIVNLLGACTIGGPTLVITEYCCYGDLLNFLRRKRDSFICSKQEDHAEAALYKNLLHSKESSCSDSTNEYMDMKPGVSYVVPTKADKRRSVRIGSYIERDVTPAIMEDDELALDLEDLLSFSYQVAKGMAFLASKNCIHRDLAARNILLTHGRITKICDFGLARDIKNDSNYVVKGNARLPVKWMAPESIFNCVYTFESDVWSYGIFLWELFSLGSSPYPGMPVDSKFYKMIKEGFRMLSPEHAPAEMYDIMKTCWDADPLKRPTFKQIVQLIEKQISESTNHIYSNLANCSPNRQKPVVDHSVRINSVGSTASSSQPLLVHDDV

KIT(V559D,V654A) = biological target: T7, KIT(V559D,V654A) (Homo sapiens, UniProt P10721, V559D/V654A); assay: KINOMEscan; assay type: binding; details: read-out: % Ctrl
T7 construct: purchased DiscoveRx KINOMEscan
T7 sequence (P10721 26-976 V559D/V654A): as the sequence (P10721 26-976 V559D) above, with V629A counted along it

MET(M1250T) = biological target: T8, MET(M1250T) (Homo sapiens, UniProt P08581, M1250T); assay: KINOMEscan; assay type: binding; details: read-out: % Ctrl
T8 construct: purchased DiscoveRx KINOMEscan
T8 sequence (P08581 25-1390 M1250T): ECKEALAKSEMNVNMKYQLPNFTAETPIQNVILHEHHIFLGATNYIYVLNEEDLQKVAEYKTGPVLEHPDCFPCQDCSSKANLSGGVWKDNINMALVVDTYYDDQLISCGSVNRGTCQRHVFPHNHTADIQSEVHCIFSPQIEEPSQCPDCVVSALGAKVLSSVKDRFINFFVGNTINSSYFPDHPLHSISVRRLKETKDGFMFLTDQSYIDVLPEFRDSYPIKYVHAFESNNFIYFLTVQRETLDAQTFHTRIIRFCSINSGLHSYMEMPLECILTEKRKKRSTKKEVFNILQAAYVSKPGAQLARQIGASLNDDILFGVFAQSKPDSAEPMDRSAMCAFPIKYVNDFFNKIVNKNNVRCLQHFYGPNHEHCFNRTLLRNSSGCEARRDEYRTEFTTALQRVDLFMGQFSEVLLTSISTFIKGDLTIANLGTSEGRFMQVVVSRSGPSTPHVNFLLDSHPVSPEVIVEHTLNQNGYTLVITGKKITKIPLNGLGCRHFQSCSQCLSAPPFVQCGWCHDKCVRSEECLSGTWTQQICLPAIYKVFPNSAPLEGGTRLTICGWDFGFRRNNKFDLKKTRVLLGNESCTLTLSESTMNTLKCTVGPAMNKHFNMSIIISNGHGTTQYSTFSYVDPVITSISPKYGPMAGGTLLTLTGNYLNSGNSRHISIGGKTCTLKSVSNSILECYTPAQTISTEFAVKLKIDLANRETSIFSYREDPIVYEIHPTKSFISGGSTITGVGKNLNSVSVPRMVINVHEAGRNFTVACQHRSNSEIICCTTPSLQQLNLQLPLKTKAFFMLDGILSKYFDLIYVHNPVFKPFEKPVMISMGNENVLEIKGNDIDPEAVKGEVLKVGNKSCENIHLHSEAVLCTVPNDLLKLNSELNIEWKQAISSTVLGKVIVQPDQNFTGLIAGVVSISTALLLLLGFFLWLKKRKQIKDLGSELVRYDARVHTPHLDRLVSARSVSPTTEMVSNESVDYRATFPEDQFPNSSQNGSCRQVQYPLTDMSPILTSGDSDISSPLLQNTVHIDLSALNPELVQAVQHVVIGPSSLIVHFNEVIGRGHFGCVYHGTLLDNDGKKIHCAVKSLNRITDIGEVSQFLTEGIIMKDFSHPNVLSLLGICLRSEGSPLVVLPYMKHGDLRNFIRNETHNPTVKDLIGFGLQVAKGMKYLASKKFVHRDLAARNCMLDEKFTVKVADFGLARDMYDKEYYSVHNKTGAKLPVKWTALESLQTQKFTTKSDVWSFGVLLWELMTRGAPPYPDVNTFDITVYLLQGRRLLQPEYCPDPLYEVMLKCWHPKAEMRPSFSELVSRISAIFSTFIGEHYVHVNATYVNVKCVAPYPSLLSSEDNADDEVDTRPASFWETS

PIK3CA(E545A) = biological target: T9, PIK3CA(E545A) (Homo sapiens, UniProt P42336, E545A); assay: KINOMEscan; assay type: binding; details: read-out: % Ctrl
T9 construct: purchased DiscoveRx KINOMEscan
T9 sequence (P42336 whole entry E545A): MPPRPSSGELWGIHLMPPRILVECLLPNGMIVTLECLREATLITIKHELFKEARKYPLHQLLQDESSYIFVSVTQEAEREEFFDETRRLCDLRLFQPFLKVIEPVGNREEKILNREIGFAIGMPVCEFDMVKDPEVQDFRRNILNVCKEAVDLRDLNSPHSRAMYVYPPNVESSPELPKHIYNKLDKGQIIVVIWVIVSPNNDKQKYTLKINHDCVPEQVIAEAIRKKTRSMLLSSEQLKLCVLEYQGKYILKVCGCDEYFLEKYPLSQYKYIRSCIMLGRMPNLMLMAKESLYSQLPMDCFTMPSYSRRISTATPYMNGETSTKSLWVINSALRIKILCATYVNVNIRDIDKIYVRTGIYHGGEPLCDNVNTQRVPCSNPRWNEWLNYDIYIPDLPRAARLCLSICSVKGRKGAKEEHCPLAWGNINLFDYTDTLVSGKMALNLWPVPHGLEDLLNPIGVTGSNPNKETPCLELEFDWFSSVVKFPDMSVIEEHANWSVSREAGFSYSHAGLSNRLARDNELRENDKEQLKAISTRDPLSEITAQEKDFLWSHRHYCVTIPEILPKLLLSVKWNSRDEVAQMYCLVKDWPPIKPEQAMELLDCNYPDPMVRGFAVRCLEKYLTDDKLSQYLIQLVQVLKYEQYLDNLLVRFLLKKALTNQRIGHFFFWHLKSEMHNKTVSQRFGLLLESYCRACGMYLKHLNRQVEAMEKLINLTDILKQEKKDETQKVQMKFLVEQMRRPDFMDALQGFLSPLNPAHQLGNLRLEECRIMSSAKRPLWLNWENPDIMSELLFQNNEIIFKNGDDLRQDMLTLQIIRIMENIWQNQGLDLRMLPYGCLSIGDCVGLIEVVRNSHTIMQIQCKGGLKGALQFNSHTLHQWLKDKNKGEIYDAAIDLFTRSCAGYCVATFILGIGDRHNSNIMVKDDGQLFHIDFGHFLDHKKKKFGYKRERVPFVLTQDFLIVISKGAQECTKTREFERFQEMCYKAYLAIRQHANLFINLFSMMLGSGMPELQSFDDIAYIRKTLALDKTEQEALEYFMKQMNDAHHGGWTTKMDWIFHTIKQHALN

PIK3CA(Q546K) = biological target: T10, PIK3CA(Q546K) (Homo sapiens, UniProt P42336, Q546K); assay: KINOMEscan; assay type: binding; details: read-out: % Ctrl
T10 construct: purchased DiscoveRx KINOMEscan
T10 sequence (P42336 whole entry Q546K): as the sequence (P42336 whole entry E545A) above, with A545E, Q546K counted along it

PKNB(M.tuberculosis) = biological target: T11, PKNB(M.tuberculosis) (Mycobacterium tuberculosis, UniProt P9WI81); assay: KINOMEscan; assay type: binding; details: read-out: % Ctrl
T11 construct: purchased DiscoveRx KINOMEscan
T11 sequence (P9WI81 whole entry): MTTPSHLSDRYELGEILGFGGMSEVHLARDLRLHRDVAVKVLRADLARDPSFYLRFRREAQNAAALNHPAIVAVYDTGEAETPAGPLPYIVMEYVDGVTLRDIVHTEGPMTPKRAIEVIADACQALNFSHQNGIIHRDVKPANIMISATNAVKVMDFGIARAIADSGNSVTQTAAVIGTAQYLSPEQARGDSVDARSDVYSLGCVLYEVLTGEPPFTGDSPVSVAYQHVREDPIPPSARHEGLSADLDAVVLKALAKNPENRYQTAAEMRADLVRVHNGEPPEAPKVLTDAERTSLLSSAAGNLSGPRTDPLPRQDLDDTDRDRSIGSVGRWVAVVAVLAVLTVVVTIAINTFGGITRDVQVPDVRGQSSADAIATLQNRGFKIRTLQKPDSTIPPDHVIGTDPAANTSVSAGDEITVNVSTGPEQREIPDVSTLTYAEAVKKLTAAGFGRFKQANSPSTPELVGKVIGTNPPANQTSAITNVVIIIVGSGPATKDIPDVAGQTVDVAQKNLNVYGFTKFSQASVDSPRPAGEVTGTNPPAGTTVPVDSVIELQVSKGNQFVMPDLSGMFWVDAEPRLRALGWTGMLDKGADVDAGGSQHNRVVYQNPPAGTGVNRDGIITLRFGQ

[6] = toxicity in xenografted mice; details: TBPT 30 or 60 mg/kg x5, PTX 10 mg/kg x4, i.v.
Procedure: Five injections of vehicle and TBPT (30 or 60 mg/kg) were administered intravenously at days 1, 3, 5, 7 and 9 (arrows). Four injections of PTX (10 mg/kg) were administered intravenously at days 1, 3, 5 and 7. (a) The tumor volume was measured every other day. When the tumor volume in the solvent-treated group exceeded 1500 mm^3, the experiment was terminated. (b) Blood biochemical and hematological analyses. (c) The body weights of the mice were monitored every other day during the experiments. *P<0.05, Student's t-test with day 0, N=5
Figure 3 Histopathological examination of the major organs from TBPT or PTX-treated mouse tumor at the end of the experiments. The cross-sections of organs were stained with hematoxylin–eosin. […] The scale bars represent 50 μm and are uniform in each column
H460 and H460TaxR cells (5 × 10^6 cells in 100 μl PBS) were injected subcutaneously into the dorsal flank of each mouse. When the tumors reached volumes of 100 mm^3, the mice were divided randomly into four groups. The mice were treated every other day five times with intravenous injections of (1) vehicle (the solvent of TBPT: 60% PBS, 8% Cremophor EL, 8% EtOH, 12% poly propylene glycol and 12% PEG-400), (2) TBPT (30 mg/kg) or (3) TBPT (60 mg/kg). Another group was treated with PTX (10 mg/kg) every other day four times as the positive control. The tumor dimensions and body weights were measured every other day. The tumor volume was calculated according to a standard formula: volume=width^2 × length/2. The experiment was terminated and the mice were killed when the tumor volumes in the solvent-treated group exceeded 1500 mm^3. The mouse organs and blood were collected and used for hematoxylin–eosin staining and serum chemistry assay. TGI rates were assessed using the following formula: TGI=1− (Tt−T0)/(Ct−C0) × 100%. Tt and T0 indicate the tumor volumes of the treated group at days t and 0. Ct and C0 indicate the tumor volumes of the control group at days t and 0, respectively.

mice hippocampus cells = assay: Cell cycle and apoptosis analysis; details: 2 μM
Procedure: Cell cycle and apoptosis analyses were performed on a Guava EasyCyte Flow Cytometry System (Millipore, Billerica, MA, USA). Cells were seeded in 6-cm culture plates and treated with 2 μM TBPT or an equal volume of DMSO on the next day for the indicated times. To analyze the intracellular DNA content, cells were harvested, washed twice in PBS and fixed in 70% ethanol at −20 °C overnight. After the cells were washed in PBS, they were stained with Guava cell cycle reagent (Millipore) and analyzed via flow cytometry. For cell apoptosis analysis, the cells were harvested, washed in PBS, stained with PI/Annexin V-FITC reagent (Life Technologies) and analyzed by flow cytometry.
The cell cycle (a) and apoptosis (b) analysis of mice hippocampus cells. The new-born mice hippocampus cells were derived and cultured as previously report (F Lu et al. Cell Death and Disease, 2012). Cells were treated with DMSO or TBPT (2 μM) for the indicated times. After the cells were stained, they were analyzed for cell cycle and apoptosis using flow cytometry.

With `Cc1ccc(C2=Nc3cccnc3S(=O)(=O)c3ccccc32)cc1` [TBPT, 6-(p-tolyl)benzo[f] pyrido[2,3-b][1,4] thiazepine 11,11-dioxide] the half-life [1] was 5.18 ± 0.69 h, the “tumor growth inhibition, TGI” value (H460 xenograft) was 62.9% and > 60% and the “tumor growth inhibition, TGI” value (H460TaxR xenograft) was 66.7% and > 60%. The “activities of caspases 8, 9 and 3/7” value (caspases 8, 9 and 3/7 [2]) was “activated caspases 8, 9 and 3/7 in a time-dependent manner”, the “activities of caspases 8, 9 and 3/7” value (caspases 8, 9 and 3/7 [3]) was “activated caspases 8, 9 and 3/7 in a time-dependent manner” and the “cell cycle arrest or apoptosis” value (NHFB cells) was “very little cell cycle arrest or apoptosis”. The remaining binding at 5 µM ([4]; 5 μM) was 72%, the remaining binding at 10 µM ([4]; 10 μM) was 98% and the remaining binding at 5 µM ([5]; 5 μM) was 70%. For the same compound, the remaining binding at 10 µM ([5]; 10 μM) was 95%, the remaining binding at 5 µM (EGFR(L861Q); 5 μM) was 100% and the remaining binding at 10 µM (EGFR(L861Q); 10 μM) was 100%. For the same compound, the remaining binding at 5 µM (EGFR(T790M); 5 μM) was 100%, the remaining binding at 10 µM (EGFR(T790M); 10 μM) was 96% and the remaining binding at 5 µM (FLT3(D835Y); 5 μM) was 92%. It also gave a remaining binding at 10 µM (FLT3(D835Y); 10 μM) of 100%, a remaining binding at 5 µM (KIT(V559D); 5 μM) of 72% and a remaining binding at 10 µM (KIT(V559D); 10 μM) of 91%. It also gave a remaining binding at 5 µM (KIT(V559D,V654A); 5 μM) of 97%, a remaining binding at 10 µM (KIT(V559D,V654A); 10 μM) of 90% and a remaining binding at 5 µM (MET(M1250T); 5 μM) of 100%. It also gave a remaining binding at 10 µM (MET(M1250T); 10 μM) of 77%, a remaining binding at 5 µM (PIK3CA(E545A); 5 μM) of 100% and a remaining binding at 10 µM (PIK3CA(E545A); 10 μM) of 100%. The remaining binding at 5 µM (PIK3CA(Q546K); 5 μM) was 100%, the remaining binding at 10 µM (PIK3CA(Q546K); 10 μM) was 94% and the remaining binding at 5 µM (PKNB(M.tuberculosis); 5 μM) was 100%. The remaining binding at 10 µM (PKNB(M.tuberculosis); 10 μM) was 85%, the “toxicity to normal tissues (blood biochemical and hematological analyses, body weight, relative organ weights)” value [6] was “did not exhibit evident toxicity to normal tissues” and the “cell cycle arrest or apoptosis” value (mice hippocampus cells) was “very little cell cycle arrest or apoptosis”.
